Test results from paper PMC8744131, “Dimensionless parameter predicts bacterial prodrug success” (Molecular Systems Biology, 2022).
In brackets after ≈: the same amount, converted by molar mass. Read-outs that look alike come from different tables or passages of the source. Where no end group is shown, it is not given here. The star is where a group is joined. 5FAM = O=C1OC2(c3ccc(O)cc3Oc3cc(O)ccc32)c2ccc(C(=O)*)cc21; Dabcyl = CN(C)c1ccc(N=Nc2ccc(C(=O)*)cc2)cc1

Legend:
OmpT on DH5α E. coli = OmpT on DH5α E. coli (Escherichia coli, UniProt P09169)
Excerpt: (§1) This allowed us to more rigorously test the model by predicting bacteria‐prodrug response curves across nine distinct combinations of kcat and r values before performing the physical experiments. We experimentally controlled the nine distinct combinations of kcat and r values by altering the ambient temperature and concentration of broth (conditions labeled A1–3, B1–3, and C1–3; Table EV3). We affected the enzymatic activation rate of the prodrug, kcat, by changing temperature as described by the Arrhenius equation (Calvert, [1990]). […] To experimentally validate this, we incubated bacteria with AMP prodrug under the defined nine conditions and quantified the number of living bacteria longitudinally over the course of a 24‐h treatment window.
Figure EV2 Calculating bacterial growth rate and enzymatic activity in the AMP prodrug system • Schematic of the simplified model that only includes bacteria and a substrate probe, which was used to quantify r and kcat from bacterial cleavage assays. • Bacterial cleavage assays (blue line) where we are measuring the increase in fluorescence from the cleavage of the fluor‐quencher substrate probe over time. Bacteria and fluor‐quencher probe are incubated together for 12 h. Then, we fit a simplified model to the results, which is plotted as the dashed line. Each panel is labeled with the environmental condition as described in Table EV3 and correlating with Fig 4.
Table EV3. Additional information for experimental conditions. This information includes incubation temperature (second column from left), the concentration of LB broth by volume (third column from left), growth rate, r (fourth column from left), enzyme catalytic turnover, kcat (fifth column from left), and the bacterial advantage heuristic, BAH (sixth column from left).

DH5α E. coli [1] = test: Short-time drug dosing experiment with free AMP for a and b; assay type: cell-based; details: DH5a + AMP prodrug model; from free AMP dosing, t < 10 min, n = 3
Protocol: Experiment was taken at a short time interval (t < 10 min) so we could calculate the number of bacteria and drug copies consumed in each killing reaction.

DH5α E. coli [2] = test: Bacterial Advantage Heuristic (BAH) / model, AMP prodrug system
Excerpt: as §1

OmpT [3] = biological target: OmpT (Escherichia coli, UniProt P09169); details: Fig EV5B, text printed in picture
Excerpt: as §1

DH5α E. coli [4] = test: Bacteria viability assay, AMP prodrugs with TEV protease or inhibitor; assay type: cell-based; details: CFU, n = 3–4
[5] = test system: OmpT expressed on the surface of E. coli K‐12 BW25113; test: Cleavage assay with OmpT expressed on the surface of E. coli; assay type: biochemical; details: 37°C, n = 3
Excerpt: To measure OmpT activity, we synthesized an activity probe (McCarter et al, [2004]; Kwong et al, [2013], [2021]; Holt et al, [2017], [2018]; Mac et al, [2019]; Zhuang et al, [2019]) with free linker peptides containing a fluorophore‐quencher pair, which produced an increase in fluorescence upon proteolytic cleavage.
(§2) Positive control for AMP toxicity (black bar).

DH5α E. coli [6] = test: Bacteria viability assay (CFU), AMP system; assay type: cell-based
Protocol: as §2
Figure EV4 Parent drug control for all conditions in AMP prodrug system Parent drug (R9, polyarginine) controls for conditions testing different media conditions and temperatures in the AMP prodrug studies.
DH5α Escherichia coli were a gift from Todd Sulchek's BioMEMS lab at Georgia Tech. E. coli were cultured in LB broth (Lennox) at 37°C and plated on LB agar (Lennox) plates. LB broth was purchased from Millipore Sigma (Burlington, MA) and LB agar was purchased from Invitrogen (Carlsbad, CA). AMP and locked AMP were custom ordered from Genscript (Piscataway, NJ). See Table EV1 for more information. Bacteria were grown to a concentration of 10^9 CFU/ml before being used for experiments. Concentration was estimated by measuring the OD600 of the bacterial suspension, and assuming an OD600 of 1.000 corresponds to a concentration of 8 × 10^8 CFU/ml. Bacterial cell viability was measured by making eight 10‐fold serial dilutions, and plating three 10‐µl spots on an LB agar plate. Plates were incubated overnight at 37°C, and CFUs were counted. Untreated bacteria CFU counts served as control for 0% cytotoxicity, and bacteria + IPA (or 0 countable CFUs) served as control for 100% cytotoxicity.

OmpT [7] = details: micromolar concentrations; ref Brannon et al, 2015; cited from earlier work
Excerpt: To validate the predictions of our mathematical model with an in vitro bacteria‐activated prodrug system, we synthesized a protease‐activated AMP prodrug. This AMP prodrug comprised cationic (polyarginine, R9) antimicrobial peptides (AMP) in charge complexation with anionic peptide locks (polyglutamic acid, E13) by a linker peptide (RRS|RRV) specific for the ubiquitous bacterial protease OmpT (Olson et al, [2009]; preprint: Holt et al, [2019]). Upon proteolytic cleavage of the linker, the hairpin prodrug is unlocked to release free AMP (Fig 3A). To measure OmpT activity, we synthesized an acti ...

UTI89 E. coli = test: Bacterial toxicity of TMP and TM-TMP (CFU / MIC); assay type: cell-based
Excerpt: Just as with our earlier experiments, we measured (i) the number of bacteria and (ii) the number of drug molecules consumed in each killing reaction to calculate the parameters a and b, respectively (Fig EV8).

Sequence of OmpT on DH5α E. coli (P09169 21-317): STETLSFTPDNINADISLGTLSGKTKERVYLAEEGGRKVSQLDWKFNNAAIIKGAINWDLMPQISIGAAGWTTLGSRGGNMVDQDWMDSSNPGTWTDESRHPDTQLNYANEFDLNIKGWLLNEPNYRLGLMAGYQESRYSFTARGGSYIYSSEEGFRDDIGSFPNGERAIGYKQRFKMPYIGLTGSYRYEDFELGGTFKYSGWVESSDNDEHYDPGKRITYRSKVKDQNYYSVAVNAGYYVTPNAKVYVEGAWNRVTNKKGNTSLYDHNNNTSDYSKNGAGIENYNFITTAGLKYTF
Sequence of OmpT (Escherichia coli, UniProt P09169) (P09169 21-317): as above

EEEEEEEEEEEEERRSRRVRRRRRRRRR [Locked AMP (linker 1), R9 antimicrobial peptide locked by E13 via OmpT-cleavable linker RRSRRV; default locked AMP]
kcat (OmpT on DH5α E. coli; condition A1: 37 °C, 0% LB broth, r 0.1 h^-1): 25 h^-1 x 10^10
kcat (OmpT on DH5α E. coli; condition A2: 30 °C, 2% LB broth, r 0.14 h^-1): 13.6 h^-1 x 10^10
kcat (OmpT on DH5α E. coli; condition A3: 37 °C, 2% LB broth, r 0.3 h^-1): 22 h^-1 x 10^10
kcat (OmpT on DH5α E. coli; condition B1: 37 °C, 4% LB broth, r 0.5 h^-1): 15 h^-1 x 10^10
kcat (OmpT on DH5α E. coli; condition B2: 37 °C, 6% LB broth, r 0.85 h^-1): 13.6 h^-1 x 10^10
kcat (OmpT on DH5α E. coli; condition B3: 37 °C, 20% LB broth, r 2.2 h^-1): 1 h^-1 x 10^10
kcat (OmpT on DH5α E. coli; condition C1: 30 °C, 20% LB broth, r 1.4 h^-1): 5.2 h^-1 x 10^10
kcat (OmpT on DH5α E. coli; condition C2: 30 °C, 66% LB broth, r 1.6 h^-1): 4 h^-1 x 10^10
kcat (OmpT on DH5α E. coli; condition C3: 37 °C, 66% LB broth, r 3 h^-1): 6 h^-1 x 10^10
a, bacterial death rate constant (DH5α E. coli [1]): 1e-13 µL/h
b, drug decay rate constant (DH5α E. coli [1]): 0.02 µL/h
ratio of a to b (DH5α E. coli [2]): 0.5 × 10^−11
catalytic efficiency kcat/Km (rank in words) (OmpT [3]): High
elimination of bacteria (DH5α E. coli [4]; OmpT-specific locked AMP alone, natively expressed OmpT): elimination of bacteria

Dabcyl-RRSRRVK(5FAM) [OmpT Probe, free linker peptide RRSRRV with fluorophore-quencher pair]
linker specificity: cleavage activity by parent strain vs OmpT knockout ([5]; OmpT-positive E. coli K‐12 BW25113 vs OmpT genetic knockout, fluorescence 485/528 nm, 60–120 min): only observed activity in samples incubated with the parent strain (i.e., OmpT‐positive)
cleavage activity in presence of aprotinin ([5]; recombinant OmpT or E. coli surface OmpT with aprotinin, fluorescence): no activity in samples containing the serine protease inhibitor, Aprotinin

polyarginine [free AMP]
reduction in colonies vs untreated controls (DH5α E. coli [6]; free AMP, CFU, n = 3–4 biological replicates, one-way ANOVA): significant reduction in colonies compared to untreated controls
treatment success (DH5α E. coli [6]; nine conditions A1–C3 (30/37 °C, 0–66% LB broth), 24 h, serial CFU, n = 3): successfully treated bacteria in all nine conditions tested

EEEEEEEEENLYFQGRRRRRRRR [Locked AMP (linker 3), AMP prodrug with linker ENLYFQG, specific to TEV protease]
catalytic efficiency kcat/Km (rank in words) (OmpT [3]): Lowest
reduction of bacteria load (DH5α E. coli [4]; TEV-specific locked AMP alone (no TEV protease)): did not significantly reduce bacteria load
elimination of bacteria (DH5α E. coli [4]; TEV-specific locked AMP plus TEV protease): elimination of bacteria

aprotinin [reference compound]
reduction of bacteria load (DH5α E. coli [4]; control with OmpT inhibitor aprotinin plus OmpT-specific locked AMP): did not significantly reduce bacteria load
inhibition of OmpT (OmpT [7]): inhibits OmpT when present in micromolar concentrations

COc1cc(Cc2cnc(N)nc2N)cc(OC)c1OC [TMP, trimethoprim]
change in number of bacteria killed on adding GSH (UTI89 E. coli; 5 mM GSH vs no GSH, surviving CFU): did not significantly change
efficiency at killing bacteria vs TM-TMP (UTI89 E. coli; 37°C, 75% broth, n = 3): significantly more efficient at killing UTI89 bacteria
MIC (UTI89 E. coli; Escherichia coli, 37°C, 75% broth, n = 3, read-out: minimum inhibitory concentration (MIC)): 3.2 µM (≈ 0.929 µg/mL)
